# Test results: US11111237B2, “Bicyclic compound and use thereof” (SK BIOPHARMACEUTICALS CO., LTD., priority 2019, dated 2021)
# Target: PRMT5-MEP50 enzyme complex (Homo sapiens (Human), UniProt O14744)
# Assay: PRMT5 enzyme activity in vitro assay (methylation of histone H4R3, ELISA absorbance at 450 nm)
# Format: biochemical
# Settings: SAM, histone H4 peptide, room temperature 2 hours, 8 points from 10 μM to 0.128 nM
# Outline: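 Human PRMT5-MEP50 was prepared at 5 μg/mL with SAM at 2 μM and reacted 2 h at room temperature on plate-coated histone H4 (1-20) peptide. An 8-point 1:5 compound series ran from 10 μM to 0.128 nM. H4R3 methylation was detected by antibody/HRP ELISA at 450 nm to give IC50.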
# Sequence of PRMT5-MEP50 enzyme complex (O14744 2-637): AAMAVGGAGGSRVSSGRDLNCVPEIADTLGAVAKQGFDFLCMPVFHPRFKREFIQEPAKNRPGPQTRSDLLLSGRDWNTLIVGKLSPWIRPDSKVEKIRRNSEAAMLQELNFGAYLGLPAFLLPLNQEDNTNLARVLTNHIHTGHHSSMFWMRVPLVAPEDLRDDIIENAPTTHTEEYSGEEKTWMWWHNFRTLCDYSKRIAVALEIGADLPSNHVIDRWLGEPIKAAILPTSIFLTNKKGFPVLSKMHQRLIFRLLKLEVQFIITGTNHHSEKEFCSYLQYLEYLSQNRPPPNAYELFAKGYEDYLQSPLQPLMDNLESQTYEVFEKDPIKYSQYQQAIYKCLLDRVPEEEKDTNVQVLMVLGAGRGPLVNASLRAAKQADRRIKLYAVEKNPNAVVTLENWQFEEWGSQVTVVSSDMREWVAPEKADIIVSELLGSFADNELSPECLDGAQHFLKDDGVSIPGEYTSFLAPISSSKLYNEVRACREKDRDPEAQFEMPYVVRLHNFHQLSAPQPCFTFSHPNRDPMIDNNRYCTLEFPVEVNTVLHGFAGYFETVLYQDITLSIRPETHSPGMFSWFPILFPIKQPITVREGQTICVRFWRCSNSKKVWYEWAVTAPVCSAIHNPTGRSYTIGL
# Sequence of PRMT5-MEP50 enzyme complex (Q9BQA1 2-342 partner): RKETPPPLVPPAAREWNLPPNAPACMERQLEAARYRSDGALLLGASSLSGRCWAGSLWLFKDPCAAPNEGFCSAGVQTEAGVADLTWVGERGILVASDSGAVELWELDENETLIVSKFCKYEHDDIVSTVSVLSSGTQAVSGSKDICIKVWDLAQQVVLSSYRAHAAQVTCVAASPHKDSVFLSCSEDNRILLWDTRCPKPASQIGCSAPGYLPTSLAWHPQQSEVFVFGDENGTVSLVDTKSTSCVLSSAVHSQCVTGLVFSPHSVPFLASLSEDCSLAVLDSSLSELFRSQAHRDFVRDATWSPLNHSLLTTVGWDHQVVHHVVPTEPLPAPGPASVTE
row,SMILES,IC50
1,"CC1(C)CN(C[C@H](O)CN2CCc3ccccc3C2)C(=O)c2ccc(CN3CCN(C=O)CC3)cc2O1 [Example 169, 4-[[4-[(2R)-3-(3,4-dihydro-1H-isoquinolin-2-yl)-2-hydroxy-propyl]-2,2-dimethyl-5-oxo-3H-1,4-benzoxazepin-8-yl]methyl]piperazine-1-carbaldehyde]",100 to 1000 nM
2,"CC1(C)CN(C[C@H](O)CN2CCc3ccccc3C2)C(=O)c2ccc(CN3CC4(COC4)C3)cc2O1 [Example 170, 4-[(2R)-3-(3,4-dihydro-1H-isoquinolin-2-yl)-2-hydroxy-propyl]-2,2-dimethyl-8-(2-oxa-6-azaspiro[3.3]heptan-6-ylmethyl)-3H-1,4-benzoxazepin-5-one]",100 to 1000 nM
3,"CCN1C2CCC1CC(Oc1ccc3c(c1)OCCN(C[C@H](O)CN1CCc4ccccc4C1)C3=O)C2 (stereo partly drawn) [Example 171, 4-[(2R)-3-(3,4-dihydro-1H-isoquinolin-2-yl)-2-hydroxy-propyl]-8-[(8-ethyl-8-azabicyclo[3.2.1]octan-3-yl)oxy]-2,3-dihydro-1,4-benzoxazepin-5-one]",1 to 100 nM
4,"CCN1CC2(CC(Oc3ccc4c(c3)OCCN(C[C@H](O)CN3CCc5ccccc5C3)C4=O)C2)C1 [Example 172, 4-[(2R)-3-(3,4-dihydro-1H-isoquinolin-2-yl)-2-hydroxy-propyl]-8-[(2-ethyl-2-azaspiro[3.3]heptan-6-yl)oxy]-2,3-dihydro-1,4-benzoxazepin-5-one]",100 to 1000 nM
5,"CC(=O)N1C2CCC1CC(Oc1ccc3c(c1)OCCN(C[C@H](O)CN1CCc4ccccc4C1)C3=O)C2 (stereo partly drawn) [Example 173, 8-[(8-acetyl-8-azabicyclo[3.2.1]octan-3-yl)oxy]-4-[(2R)-3-(3,4-dihydro-1H-isoquinolin-2-yl)-2-hydroxy-propyl]-2,3-dihydro-1,4-benzoxazepin-5-one]",1 to 100 nM
6,"CC(=O)N1CC2(CC(Oc3ccc4c(c3)OCCN(C[C@H](O)CN3CCc5ccccc5C3)C4=O)C2)C1 [Example 174, 8-[(2-acetyl-2-azaspiro[3.3]heptan-6-yl)oxy]-4-[(2R)-3-(3,4-dihydro-1H-isoquinolin-2-yl)-2-hydroxy-propyl]-2,3-dihydro-1,4-benzoxazepin-5-one]",1 to 100 nM
7,"O=C(c1ccc2c(c1)OCCN(C[C@H](O)CN1CCc3ccccc3C1)C2=O)N1CCCC1 [Example 175, 4-[(2R)-3-(3,4-dihydro-1H-isoquinolin-2-yl)-2-hydroxy-propyl]-8-(pyrrolidin-1-carbonyl)-2,3-dihydro-1,4-benzoxazepin-5-one]",100 to 1000 nM
8,"O=C(c1ccc2c(c1)OCCN(C[C@H](O)CN1CCc3ccccc3C1)C2=O)N1CCCCC1 [Example 176, 4-[(2R)-3-(3,4-dihydro-1H-isoquinolin-2-yl)-2-hydroxy-propyl]-8-(piperidine-1-carbonyl)-2,3-dihydro-1,4-benzoxazepin-5-one]",100 to 1000 nM
9,"O=C(c1ccc2c(c1)OCCN(C[C@H](O)CN1CCc3ccccc3C1)C2=O)N1CCC(F)(F)C1 [Example 177, 8-(3,3-difluoropyrrolidin-1-carbonyl)-4-[(2R)-3-(3,4-dihydro-1H-isoquinolin-2-yl)-2-hydroxy-propyl]-2,3-dihydro-1,4-benzoxazepin-5-one]",100 to 1000 nM
10,"CN1CCN(C(=O)c2ccc3c(c2)OCCN(C[C@H](O)CN2CCc4ccccc4C2)C3=O)CC1 [Example 178, 4-[(2R)-3-(3,4-dihydro-1H-isoquinolin-2-yl)-2-hydroxy-propyl]-8-(4-methylpiperazine-1-carbonyl)-2,3-dihydro-1,4-benzoxazepin-5-one]",100 to 1000 nM
11,"CC1(C)CN(C[C@H](O)CN2CCc3ccccc3C2)C(=O)c2ccc(CN3CCCC3)cc2O1 [Example 179, 4-[(2R)-3-(3,4-dihydro-1H-isoquinolin-2-yl)-2-hydroxy-propyl]-2,2-dimethyl-8-(pyrrolidin-1-ylmethyl)-3H-1,4-benzoxazepin-5-one]",100 to 1000 nM
12,"CC(=O)N1CCC(Oc2ccc3c(c2)OC(C)(C)CN(C[C@H](O)CN2CCc4ccccc4C2)C3=O)CC1 [Example 180, 8-[(1-acetyl-4-piperidyl)oxy]-4-[(2R)-3-(3,4-dihydro-1H-isoquinolin-2-yl)-2-hydroxy-propyl]-2,2-dimethyl-3H-1,4-benzoxazepin-5-one]",1 to 100 nM
13,"CC1(C)CN(C[C@H](O)CN2CCc3ccccc3C2)C(=O)c2ccc(OC3CCN(C=O)CC3)cc2O1 [Example 181, 4-[[4-[(2R)-3-(3,4-dihydro-1H-isoquinolin-2-yl)-2-hydroxy-propyl]-2,2-dimethyl-5-oxo-3H-1,4-benzoxazepin-8-yl]oxy]piperidine-1-carbaldehyde]",100 to 1000 nM
14,"CC1(C)CN(C[C@H](O)CN2CCc3ccccc3C2)C(=O)c2ccc(CN3CCN(C4COC4)CC3)cc2O1 [Example 182, 4-[(2R)-3-(3,4-dihydro-1H-isoquinolin-2-yl)-2-hydroxy-propyl]-2,2-dimethyl-8-[[4-(oxetan-3-yl)piperazin-1-yl]methyl]-3H-1,4-benzoxazepin-5-one]",100 to 1000 nM
15,"CC1(C)CN(C[C@H](O)CN2CCc3ccccc3C2)C(=O)c2ccc(CN3CCC4(COC4)C3)cc2O1 [Example 183, 4-[(2R)-3-(3,4-dihydro-1H-isoquinolin-2-yl)-2-hydroxy-propyl]-2,2-dimethyl-8-(2-oxa-7-azaspiro[3.4]octan-7-ylmethyl)-3H-1,4-benzoxazepin-5-one]",100 to 1000 nM
16,"O=C(c1ccc2c(c1)OCCN(C[C@H](O)CN1CCc3ccccc3C1)C2=O)N1CCC(F)CC1 [Example 184, 4-[(2R)-3-(3,4-dihydro-1H-isoquinolin-2-yl)-2-hydroxy-propyl]-8-(4-fluoropiperidine-1-carbonyl)-2,3-dihydro-1,4-benzoxazepin-5-one]",100 to 1000 nM
17,"O=C(c1ccc2c(c1)OCCN(C[C@H](O)CN1CCc3ccccc3C1)C2=O)N1CCCC(C(F)(F)F)C1 (stereo partly drawn) [Example 185, 4-[(2R)-3-(3,4-dihydro-1H-isoquinolin-2-yl)-2-hydroxy-propyl]-8-[3-(trifluoromethyl)piperidine-1-carbonyl]-2,3-dihydro-1,4-benzoxazepin-5-one]",100 to 1000 nM
18,"O=C(c1ccc2c(c1)OCCN(C[C@H](O)CN1CCc3ccccc3C1)C2=O)N1CCC(C(F)(F)F)CC1 [Example 186, 4-[(2R)-3-(3,4-dihydro-1H-isoquinolin-2-yl)-2-hydroxy-propyl]-8-[4-(trifluoromethyl)piperidine-1-carbonyl]-2,3-dihydro-1,4-benzoxazepin-5-one]",100 to 1000 nM
19,"CC1CN(C(=O)c2ccc3c(c2)OCCN(C[C@H](O)CN2CCc4ccccc4C2)C3=O)CC(C)O1 (stereo partly drawn) [Example 187, 4-[(2R)-3-(3,4-dihydro-1H-isoquinolin-2-yl)-2-hydroxy-propyl]-8-(2,6-dimethylmorpholin-4-carbonyl)-2,3-dihydro-1,4-benzoxazepin-5-one]",100 to 1000 nM
20,"O=C1c2ccc(C(=O)N3CC4CCC3C4)cc2OCCN1C[C@H](O)CN1CCc2ccccc2C1 (stereo partly drawn) [Example 188, 8-(2-azabicyclo[2.2.1]heptane-2-carbonyl)-4-[(2R)-3-(3,4-dihydro-1H-isoquinolin-2-yl)-2-hydroxy-propyl]-2,3-dihydro-1,4-benzoxazepin-5-one]",100 to 1000 nM
21,"O=C1c2ccc(C(=O)N3C4CCC3COC4)cc2OCCN1C[C@H](O)CN1CCc2ccccc2C1 [Example 189, 4-[(2R)-3-(3,4-dihydro-1H-isoquinolin-2-yl)-2-hydroxy-propyl]-8-(3-oxa-8-azabicyclo[3.2.1]octan-8-carbonyl)-2,3-dihydro-1,4-benzoxazepin-5-one]",100 to 1000 nM
22,"CC1CN(C(=O)c2ccc3c(c2)OCCN(C[C@H](O)CN2CCc4ccccc4C2)C3=O)CCO1 (stereo partly drawn) [Example 190, 4-[(2R)-3-(3,4-dihydro-1H-isoquinolin-2-yl)-2-hydroxy-propyl]-8-(2-methylmorpholin-4-carbonyl)-2,3-dihydro-1,4-benzoxazepin-5-one]",100 to 1000 nM
23,"CC1COCCN1C(=O)c1ccc2c(c1)OCCN(C[C@H](O)CN1CCc3ccccc3C1)C2=O (stereo partly drawn) [Example 191, 4-[(2R)-3-(3,4-dihydro-1H-isoquinolin-2-yl)-2-hydroxy-propyl]-8-(3-methylmorpholin-4-carbonyl)-2,3-dihydro-1,4-benzoxazepin-5-one]",100 to 1000 nM
24,"CC1(C)CN(C[C@H](O)CN2CCc3ccccc3C2)C(=O)c2ccc(CN3CCOCC3)nc2O1 [Example 192, 4-[(2R)-3-(3,4-dihydro-1H-isoquinolin-2-yl)-2-hydroxy-propyl]-2,2-dimethyl-8-(morpholinomethyl)-3H-pyrido[3,2-f][1,4]oxazepin-5-one]",100 to 1000 nM
25,"O=C(c1ccc2c(c1)OCCN(C[C@H](O)CN1CCc3ccccc3C1)C2=O)N1CC2CCCC2C1 (stereo partly drawn) [Example 193, 8-(3,3a,4,5,6,6a-hexahydro-1H-cyclopenta[c]pyrrol-2-carbonyl)-4-[(2R)-3-(3,4-dihydro-1H-isoquinolin-2-yl)-2-hydroxy-propyl]-2,3-dihydro-1,4-benzoxazepin-5-one]",100 to 1000 nM
26,"O=C(c1ccc2c(c1)OCCN(C[C@H](O)CN1CCc3ccccc3C1)C2=O)N1CCCC(F)C1 (stereo partly drawn) [Example 194, 4-[(2R)-3-(3,4-dihydro-1H-isoquinolin-2-yl)-2-hydroxy-propyl]-8-(3-fluoropiperidine-1-carbonyl)-2,3-dihydro-1,4-benzoxazepin-5-one]",100 to 1000 nM
27,"O=C(c1ccc2c(c1)OCCN(C[C@H](O)CN1CCc3ccccc3C1)C2=O)N1CCOC(F)(F)C1 [Example 195, 8-(2,2-difluoromorpholin-4-carbonyl)-4-[(2R)-3-(3,4-dihydro-1H-isoquinolin-2-yl)-2-hydroxy-propyl]-2,3-dihydro-1,4-benzoxazepin-5-one]",100 to 1000 nM
28,"O=C(c1ccc2c(c1)OCCN(C[C@H](O)CN1CCc3ccccc3C1)C2=O)N1CCC(F)(F)CC1 [Example 196, 8-(4,4-difluoropiperidine-1-carbonyl)-4-[(2R)-3-(3,4-dihydro-1H-isoquinolin-2-yl)-2-hydroxy-propyl]-2,3-dihydro-1,4-benzoxazepin-5-one]",100 to 1000 nM
